We go through twelve molecules from patent US20260070906A1, “IMIDAZO[4,5-C]PYRIDINE COMPOUNDS FOR THE TREATMENT OF CANCER” (Hoffmann-La Roche Inc., priority 2023, published 2026).

Experiment [1] addresses T1, human TLR7 (Homo sapiens, UniProt Q9NYK1).
T1 construct: host or cells: HEK293-Blue-hTLR7 (HEK293)
T1 sequence (Q9NYK1 27-1049): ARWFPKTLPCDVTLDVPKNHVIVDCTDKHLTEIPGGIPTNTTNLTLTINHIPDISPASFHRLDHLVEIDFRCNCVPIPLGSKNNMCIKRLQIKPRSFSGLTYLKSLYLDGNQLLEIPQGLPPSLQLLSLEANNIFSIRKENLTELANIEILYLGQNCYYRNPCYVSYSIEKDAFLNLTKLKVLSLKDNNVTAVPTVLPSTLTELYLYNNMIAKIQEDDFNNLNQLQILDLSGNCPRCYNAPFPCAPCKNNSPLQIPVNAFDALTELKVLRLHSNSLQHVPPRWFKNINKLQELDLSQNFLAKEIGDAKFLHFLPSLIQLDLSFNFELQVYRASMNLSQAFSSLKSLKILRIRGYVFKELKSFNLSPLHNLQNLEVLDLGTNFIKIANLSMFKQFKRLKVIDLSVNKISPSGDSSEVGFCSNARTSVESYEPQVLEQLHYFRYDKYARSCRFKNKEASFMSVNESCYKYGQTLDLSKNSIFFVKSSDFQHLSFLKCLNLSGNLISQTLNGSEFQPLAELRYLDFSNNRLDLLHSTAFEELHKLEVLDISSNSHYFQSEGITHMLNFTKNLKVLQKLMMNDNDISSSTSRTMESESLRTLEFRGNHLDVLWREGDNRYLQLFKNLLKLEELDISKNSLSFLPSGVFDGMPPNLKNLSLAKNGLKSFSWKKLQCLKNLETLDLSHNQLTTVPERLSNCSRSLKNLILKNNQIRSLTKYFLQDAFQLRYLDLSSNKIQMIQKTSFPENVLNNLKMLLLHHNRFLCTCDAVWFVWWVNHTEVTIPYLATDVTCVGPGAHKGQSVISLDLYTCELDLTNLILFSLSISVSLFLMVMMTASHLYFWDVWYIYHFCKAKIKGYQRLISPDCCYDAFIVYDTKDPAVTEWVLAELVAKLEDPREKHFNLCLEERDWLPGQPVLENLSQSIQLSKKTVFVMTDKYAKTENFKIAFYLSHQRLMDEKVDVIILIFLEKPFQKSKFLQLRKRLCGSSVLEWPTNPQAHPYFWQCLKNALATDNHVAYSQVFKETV
The experiment in a line: HEK293-Blue-hTLR7 cells assay (NF-κB SEAP reporter). The class given is cell-based. The conditions noted are these: 20 hrs incubation, agonism. An excerpt: A stable HEK293-Blue-hTLR7 cell line was purchased from InvivoGen (Cat. #: hkb-htlr7, San Diego, California, USA). These cells were designed for studying the stimulation of human TLR7 by monitoring the activation of NF-κB. A SEAP (secreted embryonic alkaline phosphatase) reporter gene was placed under the control of the IFN-β minimal promoter fused to five NF-κB and AP-1-binding sites. The SEAP was induced by activating NF-κB and AP-1 via stimulating HEK-Blue hTLR7 cells with TLR7 ligands. Therefore the reporter expression was regulated by the NF-κB promoter upon stimulation of human TLR7 for 20 hrs. The cell culture supernatant SEAP reporter activity was determined using QUANTI-Blue™ kit (Cat. #: rep-qbl, Invivogen, San Diego, Ca, USA) at a wavelength of 650 nm, a detection medium that turns purple or blue in the presence of alkaline phosphatase.
HEK293-Blue-hTLR7 cells were incubated at a density of 250,000˜450,000 cells/mL in a volume of 180 μL in a 96-well plate in Dulbecco's Modified Eagle's medium (DMEM) containing 4.5 g/L glucose, 100 U/mL penicillin, 100 μg/mL streptomycin, 100 μg/mL Normocin, 1% (V/V) GlutaMAX™, 10% (V/V) heat-inactivated fetal bovine serum for 24 hrs. Then the HEK293-Blue-hTLR-7 cells were incubated with addition of 20 μL test compound in a serial dilution in the presence of final DMSO at 1% and perform incubation under 37° C. in a CO2 incubator for 20 hrs. Then 20 μL of the supernatant from each well was incubated with 180 μL Quanti-blue substrate solution at 37° C. for 1 hours and the absorbance was read at 620-655 nm using a spectrophotometer. The signalling pathway that TLR7 activation leads to downstream NF-κB activation has been widely accepted, and therefore similar reporter assay was also widely used for evaluating TLR7 agonist (Tsuneyasu Kaisho and Takashi Tanaka, Trends in Immunology, Volume 29, Issue 7, July 2008, […]; Hiroaki Hemmi et al, Nature Immunology 3, 196-200 (2002)).

For experiment [2], the target named is T2, human TLR8 (Homo sapiens, UniProt Q9NR97).
T2 construct: host or cells: HEK293-Blue-hTLR8 (HEK293)
T2 sequence (Q9NR97 27-1041): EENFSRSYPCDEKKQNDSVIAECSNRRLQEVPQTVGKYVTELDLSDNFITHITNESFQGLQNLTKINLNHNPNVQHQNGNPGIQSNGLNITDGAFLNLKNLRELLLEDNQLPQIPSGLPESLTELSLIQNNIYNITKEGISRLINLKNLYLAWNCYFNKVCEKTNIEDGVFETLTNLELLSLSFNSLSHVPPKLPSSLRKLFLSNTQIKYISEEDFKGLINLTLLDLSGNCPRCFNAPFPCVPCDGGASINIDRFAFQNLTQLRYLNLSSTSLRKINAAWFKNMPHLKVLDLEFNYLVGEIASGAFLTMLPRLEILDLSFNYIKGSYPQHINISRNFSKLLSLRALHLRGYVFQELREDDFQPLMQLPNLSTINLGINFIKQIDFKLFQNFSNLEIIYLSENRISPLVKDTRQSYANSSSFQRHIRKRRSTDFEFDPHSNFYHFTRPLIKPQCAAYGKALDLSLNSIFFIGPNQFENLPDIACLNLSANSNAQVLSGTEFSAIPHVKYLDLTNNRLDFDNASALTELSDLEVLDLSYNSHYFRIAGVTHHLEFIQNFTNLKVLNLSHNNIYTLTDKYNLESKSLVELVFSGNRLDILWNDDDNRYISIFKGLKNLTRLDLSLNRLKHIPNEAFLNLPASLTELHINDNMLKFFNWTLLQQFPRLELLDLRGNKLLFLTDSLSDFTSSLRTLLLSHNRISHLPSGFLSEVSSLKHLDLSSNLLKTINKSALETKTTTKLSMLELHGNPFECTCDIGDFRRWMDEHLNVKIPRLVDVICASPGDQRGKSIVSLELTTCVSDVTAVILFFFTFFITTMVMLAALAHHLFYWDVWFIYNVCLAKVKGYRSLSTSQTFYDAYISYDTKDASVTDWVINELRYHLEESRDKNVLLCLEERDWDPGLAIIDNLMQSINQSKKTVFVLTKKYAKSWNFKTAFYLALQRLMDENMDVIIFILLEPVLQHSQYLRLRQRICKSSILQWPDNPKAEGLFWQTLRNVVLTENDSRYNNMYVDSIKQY
The experiment in a line: HEK293-Blue-hTLR8 cells assay (NF-κB SEAP reporter). To be noted: 20 hours incubation, agonism. The class given is cell-based. The text has this:
A stable HEK293-Blue-hTLR8 cell line was purchased from InvivoGen (Cat. #: hkb-htlr8, San Diego, California, USA). These cells were designed for studying the stimulation of human TLR8 by monitoring the activation of NF-κB. A SEAP (secreted embryonic alkaline phosphatase) reporter gene was placed under the control of the IFN-β minimal promoter fused to five NF-κB and AP-1-binding sites. The SEAP was induced by activating NF-κB and AP-1 via stimulating HEK-Blue hTLR8 cells with TLR8 ligands. Therefore the reporter expression was regulated by the NF-κB promoter upon stimulation of human TLR8. The cell culture supernatant SEAP reporter activity was determined using QUANTI-Blue™ kit (Cat. #: rep-qbl, Invivogen, San Diego, Ca, USA) at a wavelength of 650 nm, a detection medium that turns purple to blue in the presence of alkaline phosphatase.
HEK293-Blue-hTLR8 cells were incubated at a density of 250,000-450,000 cells/mL in a volume of 180 μL in a 96-well plate in Dulbecco's Modified Eagle's medium (DMEM) containing 4.5 g/L glucose, 100 U/mL penicillin, 100 μg/mL streptomycin, 100 μg/mL Normocin, 1% (V/V) GlutaMAX™, 10% (v/v) heat-inactivated fetal bovine serum for 24 hours. Then the HEK293-Blue-hTLR8 cells were incubated with addition of 20 μL test compound in a serial dilution in the presence of final DMSO at 1% and perform incubation under 37° C. in a CO2 incubator for 20 hours. Then 20 μL of the supernatant from each well was incubated with 180 μL Quanti-blue substrate solution at 37° C. for 1 hours and the absorbance was read at 620-655 nm using a spectrophotometer. The signalling pathway that TLR8 activation leads to downstream NF-κB activation has been widely accepted, and therefore similar reporter assay was also widely used for evaluating TLR8 agonist.

Consider `CCOCc1nc2c(N)nc(C)c(Sc3ccc(CN(C)C)cc3)c2[nH]1` [Example 1, 7-[4-[(dimethylamino)methyl]phenyl]sulfanyl-2-(ethoxymethyl)-6-methyl-1H-imidazo[4,5-c]pyridin-4-amine], for which the figures for the EC50 in experiment [1] and in experiment [2] were 27 nM and 14 nM, respectively.

As to `CCOCc1nc2c(N)nc(C)c(Sc3ccc(CN(C)CC)cc3)c2[nH]1` [Example 6, 2-(ethoxymethyl)-7-[4-[[ethyl(methyl)amino]methyl]phenyl]sulfanyl-6-methyl-1H-imidazo[4,5-c]pyridin-4-amine], the half-maximal effective concentration (EC50) in experiment [1] was determined as 15 nM; in experiment [2], 10 nM.

For `CCOCc1nc2c(N)nc(C)c(Sc3c(OC)cc(CN(C)C)cc3OC)c2[nH]1` [Example 4, 7-[4-[(dimethylamino)methyl]-2,6-dimethoxy-phenyl]sulfanyl-2-(ethoxymethyl)-6-methyl-1H-imidazo[4,5-c]pyridin-4-amine], the concentration giving a half-maximal response (EC50) in experiment [1] was 1 nM; in experiment [2], 20 nM.

Regarding `CCOCc1nc2c(N)nc(C)c(Sc3cc(O)c(CN(C)C)cc3C)c2[nH]1` [Example 25, 5-[[4-amino-2-(ethoxymethyl)-6-methyl-1H-imidazo[4,5-c]pyridin-7-yl]sulfanyl]-2-[(dimethylamino)methyl]-4-methyl-phenol], the half-maximal effective concentration (EC50) in experiment [1] came to 33 nM; in experiment [2] it was 61 nM.

For the molecule `CCCCc1nc2c(N)nnc(N(C)Cc3ccc(CN(C)C)cc3)c2n1C` [SAN-43, reference compound], in experiment [1], the response was half-maximal at 310 nM (EC50); the “HEK293-hTLR7 EC50” value was “did not show comparable TLR7 and TLR8 activities”. In experiment [2], the EC50 was 37 nM; the “HEK293-hTLR8 EC50” value was “did not show comparable TLR7 and TLR8 activities”.

In the case of `CCOCc1nc2c(N)nc(C)c(SCCc3ccc(CN(C)C)c(O)c3)c2[nH]1` [Example 13, 5-[2-[[4-amino-2-(ethoxymethyl)-6-methyl-LH-imidazo[4,5-c]pyridin-7-yl]sulfanyl]ethyl]-2-[(dimethylamino)methyl]phenol], the figures for the concentration for a half-maximal effect (EC50) in experiment [1] and in experiment [2] were 12 nM and 19 nM, respectively.

Take `CCOCc1nc2c(N)nc(C)c(Sc3ccc(CN(CC)CC)cc3O)c2[nH]1` [Example 17, 2-[[4-amino-2-(ethoxymethyl)-6-methyl-1H-imidazo[4,5-c]pyridin-7-yl]sulfanyl]-5-(diethylaminomethyl)phenol]: the EC50 came out at 24 nM in experiment [1] and 56 nM in experiment [2].

For the molecule `CCOCc1nc2c(N)nc(C)c(Sc3ccc(CN(C)C)c(OC)c3)c2[nH]1` [Example 9, 7-[4-[(dimethylamino)methyl]-3-methoxy-phenyl]sulfanyl-2-(ethoxymethyl)-6-methyl-1H-imidazo[4,5-c]pyridin-4-amine], the concentration giving a half-maximal response (EC50) in experiment [1] came to 30 nM; in experiment [2], 3 nM.

For the molecule `CCOCc1nc2c(N)nc(C)c(Sc3cc4c(cc3O)CN(C)CC4)c2[nH]1` [Example 32, 6-[[4-amino-2-(ethoxymethyl)-6-methyl-1H-imidazo[4,5-c]pyridin-7-yl]sulfanyl]-2-methyl-3,4-dihydro-1H-isoquinolin-7-ol], the half-maximal effective concentration (EC50) came out at 21 nM in experiment [1] and 54 nM in experiment [2].

As for `CCOCc1nc2c(N)nc(C)c(Sc3ccc(CN(C)C)c(O)c3)c2n1C` [Example 12, 5-[4-amino-2-(ethoxymethyl)-1,6-dimethyl-imidazo[4,5-c]pyridin-7-yl]sulfanyl-2-[(dimethylamino)methyl]phenol], the EC50 in experiment [1] was found to be 10 nM; in experiment [2], 3 nM.

Turning to `CCOCc1nc2c(N)nc(C)c(Sc3c(N)cc(CN4CCN(C)CC4)cc3OC)c2[nH]1` [Example 29, 7-[2-amino-6-methoxy-4-[(4-methylpiperazin-1-yl)methyl]phenyl]sulfanyl-2-(ethoxymethyl)-6-methyl-1H-imidazo[4,5-c]pyridin-4-amine], the concentration for a half-maximal effect (EC50) was found to be 6 nM in experiment [1] and 44 nM in experiment [2].

As to `CCCCc1nc2c(N)nc(C)c(Sc3ccc(CN(C)C)cc3O)c2[nH]1` [Example 21, 2-[(4-amino-2-butyl-6-methyl-1H-imidazo[4,5-c]pyridin-7-yl)sulfanyl]-5-[(dimethylamino)methyl]phenol], the EC50 stood at 14 nM in experiment [1] and 43 nM in experiment [2].
